Measured values: patent US8592603B2, “Synthesis of 2-(4-aminophenyl) benzothiazole derivatives and use thereof” (Kaohsiung Medical University, priority 2011, dated 2013)

B1: catalase: an effective H2O2 scavenger (Sigma) (protein, UniProt P00432 2-527, looked up)
Catalase: ADNRDPASDQMKHWKEQRAAQKPDVLTTGGGNPVGDKLNSLTVGPRGPLLVQDVVFTDEMAHFDRERIPERVVHAKGAGAFGYFEVTHDITRYSKAKVFEHIGKRTPIAVRFSTVAGESGSADTVRDPRGFAVKFYTEDGNWDLVGNNTPIFFIRDALLFPSFIHSQKRNPQTHLKDPDMVWDFWSLRPESLHQVSFLFSDRGIPDGHRHMNGYGSHTFKLVNANGEAVYCKFHYKTDQGIKNLSVEDAARLAHEDPDYGLRDLFNAIATGNYPSWTLYIQVMTFSEAEIFPFNPFDLTKVWPHGDYPLIPVGKLVLNRNPVNYFAEVEQLAFDPSNMPPGIEPSPDKMLQGRLFAYPDTHRHRLGPNYLQIPVNCPYRARVANYQRDGPMCMMDNQGGAPNYYPNSFSAPEHQPSALEHRTHFSGDVQRFNSANDDNVTQVRTFYLKVLNEEQRKRLCENIAGHLKDAQLFIQKKAVKNFSDVHPEYGSRIQALLDKYNEEKPKNAVHTYVQHGSHLSAREKANL

Assays:
[1] = system: ERK; test: Western blot analysis of MAPK phosphorylation: ERK; type: cell-based, human; conditions: BCC cells, pretreatment 30 min before 4 μM 6f-UVA; oligomycin 25 μM, ATP 1×10^−4M (FIG. 6B)
Protocol: (A) After exposure to different concentration of 6f-UVA, cell lysates were collected and immunoblotted with specific antibodies as indicated. For the internal control, the same amounts of protein extract were also probed with antibody against actin. (B) As a control, the expression level of p-ERK was determined in the presence of oligomycin (25 μM) and ATP (1×10^−4M)
Total cell extracts from cultured BCC cells were obtained by lysing the cells in ice-cold RIPA buffer (1×PBS, 1% NP-40, 0.5% sodium deoxycholate, 0.1% SDS) containing 100 μg/mL PMSF, 2 μg/mL aprotinin, 2 μg/mL leupeptin and 100 μg/mL NaF. After centrifugation at 14,000 g for 30 min, protein in the supernatants was quantified by Bradford method (Bio-Rad). Forty micrograms of protein per lane was applied in 10% SDS-poly-acrylamide gel. After electrophoresis, protein was transferred from the gel to polyvinylidene difluoride (PVDF) membrane (Millipore, Bedford, Mass.). The membranes were blocked at room temperature for 1 h in PBS+0.1% Tween 20 (PBS-T) containing 5% skim milk. After being briefly rinsed with PBS-T, the blots were probed with respective primary antibodies at room temperature for 2 h or at 4° C. overnight. Rabbit polyclonal antibodies against JNK (46 kDa), p38 (38 kDa), ERK (42, 44 kDa), and mouse monoclonal antibody against p-JNK, p-p38, p-ERK were purchased from Santa Cruz Biotechnology (Santa Cruz, Calif.). Mouse monoclonal antibody against actin was purchased from Chemicon Int. Inc. (Temecula, Calif.). For the blocking test, 25 μM oligomycin (Sigma, a mitochondria-specific F0F1 ATP synthase inhibitor) or 1×10^−4M ATP (Sigma) was added to the media 30 min before treated with 6f-UVA, respectively. The membrane was incubated with the corresponding horseradish peroxidase-labeled secondary antibody (Santa Cruz Biotechnology) at room temperature for 1 h. […] The relative amounts of specific proteins were quantified by densitometry scanning of X-ray films and analyzed by Eagle Eye Image System (Stratagene, La Jolla, Calif.)

[2] = system: BCC cells; test: Sub-G1 region analysis (PI, flow cytometry); type: cell-based, human; conditions: 4 μM for 4 hours, 1 J/cm^2 UVA, 24 h after irradiation
Protocol: BCC cells were treated with compounds at 4 μM and 1 J/cm^2 UVA. Twenty-four hours after irradiation, cells were harvested by trypsinization and centrifugation. Cell pellets were resuspended in 50% cold ethanol and fixed at −20° C. After fixation, cells were washed once with cold PBS and incubated in 0.5 mL of PBS containing 100 μg/mL RNase A for 20 min at 37° C. Cells were harvested by centrifugation at 400 g for 5 min, and 250 μL of PBS containing 50 μg/mL propidium iodide (PI) was added to the pellet. Thirty minutes later, the DNA contents of 10,000 events were measured by FACSscan flow cytometer (Elite ESP, Beckman Coulter, Brea, Calif.). Histograms were analyzed using Windows Multiple Document Interface software (WinMDI). Cells with DNA content less than that in untreated cells in G0/G1 were considered apoptotic. To investigate the effects of compounds 6 on cell cycle progression of BCC cells, the DNA content of cell nuclei was measured by flow cytometric analysis. […] BCC cells were treated with 4 μM agents for 4 hours followed by 1 J/cm^2 UVA irradiation. Twenty-four hours after irradiation, the PI reagent was used. Approximately 10000 cells from each group were analyzed with the FACScan flow cytometer. The apoptotic effects in 2.2% (control), 6.5% (6a), 13.4% (6b), 29.2% (6c), 24.4% (6d), 6.5% (6e), 35.4% (6f), 13.6% (6g), 13.8% (6h), 14.8% (6i) and 6.4% (6j) of sub-G1 DNA peak were obtained (% represented the percentage of cell counts).

[3] = system: BCC cells; test: Determination of intracellular ROS level (DCFH-DA); type: cell-based, human; conditions: BCC cells treated with 4 μM 6f-UVA, catalase 800 U/mL pretreatment
Protocol: (A) 6f-UVA induced ROS generation in BCC cells. Histogram of fluorescence vs cell count in BCC cells with various concentrations of 6f-UVA and stained with DCFH-DA. As a control, ROS was measured in the presence of catalase, a H2O2 scavenger. (B) The ΔΨmt of BCC cells after exposure to 6f-UVA. Cells were treated with 0, 2, and 4 μM Formula 6f for 4 h followed by 1 J/cm2 UVA irradiation, then stained with DiOC6 and analyzed immediately by flow cytometry as described under Materials and Methods. The number in M1 indicates the percentage of cells with reduced ΔΨmt. Approximately 10000 cells from each group were analyzed by flow cytometry. (C) Relative ATP levels were calculated as the percentage of the 0 μM level. Similar results were obtained in three independent experiments. *p<0.05, ** p<0.01 as compared with the control.
To evaluate intracellular reactive oxygen species (ROS) levels, 2′,7′-dichlorofluorescein diacetate (DCFH-DA, Molecular Probes) fluorescent dye was used to clarify this issue. The nonpolar DCFH-DA is converted to the polar derivative DCFH by esterases when it is taken up by the cell. DCFH is nonfluorescent but is rapidly oxidized to the highly fluorescent DCF by intracellular H2O2 or nitric oxide. […] The fluorescence of the samples was measured with a flow cytometer. The 2′,7′-dichlorofluorescein (DCF) data were recorded using FL-1 photomultiplier.

| Molecule | ERK activation after pretreatment [1] | sub-G1 DNA peak (apoptotic effects, percentage of cell counts) [2] | melting point | effect of catalase on increased ROS production [3] |
| --- | --- | --- | --- | --- |
| Nc1ncnc2c1ncn2[C@@H]1O[C@H](COP(=O)(O)OP(=O)(O)OP(=O)(O)O)[C@@H](O)[C@H]1O [ATP] | not ATP increased the ERK activation | – | – | – |
| Nc1ccc(-c2nc3ccccc3s2)cc1 [Formula 6a, 2-(4-Aminophenyl)benzothiazole] | – | 6.5% | – | – |
| Cc1ccc2nc(-c3ccc(N)cc3)sc2c1 [Formula 6b, 2-(4-Aminophenyl)-6-methylbenzothiazole] | – | 13.4% | – | – |
| CCc1ccc2nc(-c3ccc(N)cc3)sc2c1 [Formula 6c, 2-(4-Aminophenyl)-6-ethylbenzothiazole] | – | 29.2% | 154 to 156 °C | – |
| COc1cccc2nc(-c3ccc(N)cc3)sc12 [Formula 6d, 2-(4-Aminophenyl)-7-methoxybenzothiazole] | – | 24.4% | 142 to 144 °C | – |
| COc1ccc2nc(-c3ccc(N)cc3)sc2c1 [Formula 6e, 2-(4-Aminophenyl)-6-methoxybenzothiazole] | – | 6.5% | – | – |
| Cc1cc(-c2nc3ccccc3s2)ccc1N [Formula 6g, 2-(4-Amino-3-methylphenyl)benzothiazole] | – | 13.6% | – | – |
| CCc1ccc2nc(-c3ccc(N)c(C)c3)sc2c1 [Formula 6h, 2-(4-Amino-3-methylphenyl)-6-ethylbenzothiazole] | – | 13.8% | 171 to 173 °C | – |
| COc1ccc2nc(-c3ccc(N)c(C)c3)sc2c1 [Formula 6i, 2-(4-Amino-3-methylphenyl)-6-methoxybenzothiazole] | – | 14.8% | 151 to 153 °C | – |
| Cc1cc(-c2nc3ccc(C(F)(F)F)cc3s2)ccc1N [Formula 6j, 2-(4-Amino-3-methylphenyl)-6-trifluoromethylbenzothiazole] | – | 6.4% | 152 to 154 °C | – |
| CC[C@H]1/C=C/C=C/C[C@@H](C)[C@H](O)[C@@](C)(O)C(=O)[C@@H](C)[C@H](O)[C@@H](C)C(=O)[C@@H](C)[C@H](O)[C@@H](C)/C=C/C(=O)O[C@@H]2[C@H](C)[C@H](CC1)O[C@]1(CC[C@H](C)[C@H](C[C@@H](C)O)O1)[C@H]2C [oligomycin] | increased the ERK activation | – | – | – |
| B1 | – | – | – | significantly abrogated |
